# Data reported in paper PMC6278315, “Microwave-Assisted Expeditious Synthesis of 2-Alkyl-2-(N-arylsulfonylindol-3-yl)-3-N-acyl-5-aryl-1,3,4-oxadiazolines Catalyzed by HgCl2 under Solvent-Free Conditions as Potential Anti-HIV-1 Agents” (Molecules, 2018).
# Assays:
# [1] = tested on: HIV-1IIIB; test: Syncytia assay (anti-HIV-1 activity); format: cell-based; settings: Human immunodeficiency virus 1, 72 h; concentration reducing syncytia formation by 50%; C8166 cells infected with HIV-1IIIB, M.O.I 0.06, 3 days; means of two separate experiments; read-out: EC50 (50% effective concentration)
# Protocol: (§1) Cell line (C8166) and the laboratory-derived virus (HIV-1IIIB) were obtained from MRC, AIDS Reagent Project, London, UK. C8166 was maintainedin RPMI-1640 supplemented with 10% heat-inactivated newborn calf serum (Gibco, Grand Island, NY, USA). The cells used in all experiments were in log-phase growth. The 50% HIV-1IIIB tissue culture infectious dose (TCID50) in C8166 cells was determined and calculated by the Reed and Muench method. Virus stocks were stored in small aliquots at −70 °C.
# In the presence of 100 μL various concentrations of 2-alkyl-2-(N-arylsulfonylindol-3-yl)-3-N-acyl-5-aryl-1,3,4-oxadiazolines, C8166 cells (4 × 10^5/mL) were infected with virus HIV-1IIIB at a multiplicity of infection (M.O.I) of 0.06. The final volume per well was 200 μL. Control assays were performed without the testing compounds in HIV-1IIIB infected and uninfected cultures. After 3 days of culture, the cytopathic effect (CPE) was measured by counting the number of syncytia. Percentage inhibition of syncytia formation was calculated and 50% effective concentration (EC50) was calculated. AZT (Sigma-Aldrich, St. Louis, MO, USA) was used as a positive control. Therapeutic index (TI) = CC50/EC50.
# [2] = MTT-based cytotoxicity assay; settings: human, C8166 cells, concentration causing 50% reduction in total C8166 cell number, means of two separate experiments, read-out: CC50 (50% cytotoxic concentration)
# Protocol: as §1
# Cellular toxicity of 2-alkyl-2-(N-arylsulfonylindol-3-yl)-3-N-acyl-5-aryl-1,3,4-oxadiazolines 3s–r′ on C8166 cells was assessed by MTT method as described previously. Briefly, cells were seeded on 96-well microtiter plate in the absence or presence of various concentrations of 2-alkyl-2-(N-arylsulfonylindol-3-yl)-3-N-acyl-5-aryl-1,3,4-oxadiazolines in triplicate and incubated at 37 °C in a humid atmosphere of 5% CO2 for 3 day. The supernatants were discarded and MTT reagent (5 mg/mL in PBS) was added to each wells, then incubated for 4 h, 100 μL of 50% N,N-dimethylformamide (DMF)-20% SDS was added. After the formazan was dissolved completely, the plates were read on a Bio-TekElx800 ELISA reader (BioTek, Winooski, VT, USA) at 595/630 nm. The cytotoxic concentration that caused the reduction of viable C8166 cells by 50% (CC50) was determined from dose–response curve.
EC50 [1],melting point,Compound,CC50 at 3 day [2]
3 µg/mL,,CCC(=O)N1N=C(c2ccccc2)OC1c1cn(S(=O)(=O)c2ccc(C)cc2)c2ccccc12 (stereo not drawn) [3q′],78 µg/mL
3.53 µg/mL,,CC(=O)N1N=C(c2ccccc2)OC1c1cn(S(=O)(=O)c2ccc(Cl)c([N+](=O)[O-])c2)c2ccccc12 (stereo not drawn) [3h′],4.8 µg/mL
17.6 µg/mL,208 to 210 °C,"CC(=O)N1N=C(c2ccccc2)OC1(C)c1cn(S(=O)(=O)c2ccccc2)c2ccc(C#N)cc12 (stereo not drawn) [3z, 2-Methyl-2-(N-benzenesulfonyl-5-cyanoindol-3-yl)-3-N-acetyl-5-phenyl-1,3,4-oxadiazolines]",53 µg/mL
19.4 µg/mL,,CC(=O)N1N=C(c2ccccc2)OC1c1cn(S(=O)(=O)c2ccc(Cl)cc2)c2ccccc12 (stereo not drawn) [3k′],16.6 µg/mL
3.63 µg/mL,128 to 130 °C,"CC(=O)N1N=C(c2ccccc2)OC1(C)c1cn(S(=O)(=O)c2ccc(Cl)cc2)c2ccc(C#N)cc12 (stereo not drawn) [3a′, 2-Methyl-2-(N-p-chlorobenzenesulfonyl-5-cyanoindol-3-yl)-3-N-acetyl-5-phenyl-1,3,4-oxadiazolines]",113 µg/mL
4.01 µg/mL,,CCC(=O)N1N=C(c2ccccc2)OC1c1cn(S(=O)(=O)c2ccc(C)cc2)c2ccc(C#N)cc12 (stereo not drawn) [3r′],98.3 µg/mL
15.5 µg/mL,,CC(=O)N1N=C(c2ccccc2)OC1c1cn(S(=O)(=O)c2ccc(C)cc2)c2ccccc12 (stereo not drawn) [3e′],15.1 µg/mL
22.5 µg/mL,,COc1ccc(S(=O)(=O)n2cc(C3OC(c4ccccc4)=NN3C(C)=O)c3ccccc32)cc1 (stereo not drawn) [3m′],12.3 µg/mL
0.51 µg/mL,,CC(=O)N1N=C(c2ccccc2)OC1c1cn(S(=O)(=O)c2cccc([N+](=O)[O-])c2)c2cc(C)ccc12 (stereo not drawn) [3i′],20.2 µg/mL
9.54 µg/mL,110 to 112 °C,"CC(=O)N1N=C(c2ccccc2)OC1(C)c1cn(S(=O)(=O)c2ccc(C)cc2)c2ccc([N+](=O)[O-])cc12 (stereo not drawn) [3b′, 2-Methyl-2-(N-p-methylbenzenesulfonyl-5-nitroindol-3-yl)-3-N-acetyl-5-phenyl-1,3,4-oxadiazolines]",133 µg/mL
22.5 µg/mL,,CC(=O)N1N=C(c2ccccc2)OC1c1cn(S(=O)(=O)c2ccc(C)cc2)c2cc(C)ccc12 (stereo not drawn) [3g′],80.8 µg/mL
16.6 µg/mL,,COc1ccc(S(=O)(=O)n2cc(C3OC(c4ccccc4)=NN3C(C)=O)c3ccc(C)cc32)cc1 (stereo not drawn) [3n′],11.2 µg/mL
6.12 µg/mL,142 to 144 °C,"CC(=O)N1N=C(c2ccccc2)OC1(C)c1cn(S(=O)(=O)c2ccccc2)c2cc(C)ccc12 (stereo not drawn) [3y, 2-Methyl-2-(N-benzenesulfonyl-6-methylindol-3-yl)-3-N-acetyl-5-phenyl-1,3,4-oxadiazolines]",> 200 µg/mL
63.8 µg/mL,,CC(=O)N1N=C(c2ccccc2)OC1c1cn(S(=O)(=O)c2cccc([N+](=O)[O-])c2)c2ccc(C#N)cc12 (stereo not drawn) [3p′],135 µg/mL
1.79 µg/mL,,CC(=O)N1N=C(c2ccccc2)OC1c1cn(S(=O)(=O)c2cccc([N+](=O)[O-])c2)c2ccccc12 (stereo not drawn) [3f′],43.5 µg/mL
18.1 µg/mL,,CC(=O)N1N=C(c2ccccc2)OC1c1cn(S(=O)(=O)c2ccc(C)cc2)c2ccc(C#N)cc12 (stereo not drawn) [3o′],152 µg/mL
0.00199 µg/mL,,"Cc1cn([C@H]2C[C@H](N=[N+]=[N-])[C@@H](CO)O2)c(=O)[nH]c1=O [AZT, 3′-azido-3′-deoxythymidine, reference compound]",1370 µg/mL
57.5 µg/mL,,CC(=O)N1N=C(c2ccccc2)OC1c1cn(S(=O)(=O)c2ccc(Cl)cc2)c2cc(C)ccc12 (stereo not drawn) [3l′],182 µg/mL
6.01 µg/mL,108 to 110 °C,"CC(=O)N1N=C(c2ccccc2)OC1(C)c1cn(S(=O)(=O)c2ccc(Cl)cc2)c2ccc([N+](=O)[O-])cc12 (stereo not drawn) [3c′, 2-Methyl-2-(N-p-chlorobenzenesulfonyl-5-nitroindol-3-yl)-3-N-acetyl-5-phenyl-1,3,4-oxadiazolines]",53.4 µg/mL
12.4 µg/mL,,CC(=O)N1N=C(c2ccccc2)OC1c1cn(S(=O)(=O)c2ccc(Cl)c([N+](=O)[O-])c2)c2cc(C)ccc12 (stereo not drawn) [3j′],2.26 µg/mL
20.3 µg/mL,224 to 226 °C,"CCC1(c2cn(S(=O)(=O)c3ccccc3)c3ccccc23)OC(c2ccccc2)=NN1C(C)=O (stereo not drawn) [3d′, 2-Ethyl-2-(N-benzenesulfonylindol-3-yl)-3-N-acetyl-5-phenyl-1,3,4-oxadiazolines]",105 µg/mL
